Results: patent US20240269196A1, “RESPIRATORY TREATMENTS USING SALMONID OIL COMPOSITIONS” (Hofseth Biocare ASA, priority 2020, published 2024)
“And” between values parts separate entries of the source, which are not always exact repeats. Identical values can stand only once. Like-named read-outs stand apart in the source and are kept apart here.

Legend:
[1] = format: in vivo; conditions: for Mortality and Morbidity: No. of Incidence/No. of Animals: incidence of the observation 'No mortality/morbidity'
Source text: Clinical signs were observed after test item administration and all the other days throughout the study period for all the animals. The cage side observations included (but not limited to) changes in skin and fur, eyes and mucous membranes, as well as respiratory, circulatory, autonomic and central nervous system, somatomotor activity and behavior pattern.
Animals were weighed during randomization, at start of treatment and weekly thereafter, until the end of experimental period.
Raw Data were processed using Statistical Software Sigma Plot 14. The mean and Standard Deviation were calculated using the Software and all data were summarized in tabular form. All continuous data like the body weight was checked for their normality and for homogeneous data, ANOVA was used.

[2] = system: guinea pig peritoneal eosinophils; assay: Chemotactic and chemokinetic activities to leukotriene B4 of peritoneal eosinophils after i.p. pretreatment (Boyden chamber); format: in vivo, Cavia porcellus (Guinea Pig); conditions: for chemokinetic (B) activity to leukotriene B4 (0.1 uM), individual animals / chemotactic (A) activity to leukotriene B4 (0.1 uM), individual animals: guinea pig peritoneal eosinophils; for inhibition of eosinophil chemotactic and chemokinetic activities: i.p. pretreatment, n=3 per dose
Procedure: The animals used in this example were from the species Cavia porcellus (Guinea Pig). A total of 21 male guinea pigs weighing between 200-250 g were selected. These animals were manually randomized into 7 groups i.e. G1 and G2 (OmeGo Salmon oil 30 and 300 mg/kg), G3 and G4 (SEACOD 30 and 300 mg/kg), G5 and G6 were positive control (Fevipiprant 5 and 20 mg/kg) and G7 was negative control (linoleic acid 300 mg/kg) wherein each group consisted of 3 animals.
Guinea pigs were sensitized to create mild eosinphilia by intraperitoneal injection of Polymyxin B (1 mg/animal) once a week for 6 weeks. Polymyxin B was given by dissolving it in 0.9% saline solution. Each animal was injected with 0.5 mL of 0.9% saline containing 1 mg of Polymyxin B. In week 6, in addition to the Polymyxin B, animals were injected with test items belonging to their specific group, as shown in Table 5 below.
Animals were treated with Polymyxin B through an intraperitoneal injection. Along with Polymyxin B even the test items were given through the intraperitoneal route. In the 6th week animals were anesthetized using isoflurane and the intraperitoneal fluid was collected by injecting 50 mL of saline in the peritoneum cavity. After massaging the abdomen for 15 seconds the fluid was drained and collected in the centrifuge tubes. Around 30-35 mL of fluid was collected from each animal. This fluid was centrifuged for 10 mins (400×g 4° C.) and was resuspended in FBS (Fetal bovine serum) medium. Following this step, the fluid was recentrifuged for 10 min (400×g 4° C.) and the cell pellet was analyzed for chemotactic and chemokinetic responses of eosinophils to leukotriene B4 and cell counts using a 96-well microchemotaxis test chamber.
Eosinophils were recovered at greater than 90% purity using a modified procedure reported by Fukusa et. al. (Increased numbers of hypodense eosinophils in the blood of patients with bronchial asthma. Am. Rev. Respir. Dis. 1985; 132:981-985).
The animals were treated with Polymyxin B saline solution once every week for continuously 5 weeks and in the 6th week along with the Polymyxin B test item was given as per the groups. Each animal received 1 mg of Polymyxin B.
The chemotactic and chemokinetic activities were measured by the Boyden chamber method using a 96-well microchamber and expressed as the number of eosinophils counted on the membrane filter under ×400 magnification (cells/five fields). The chemokinetic activity to leukotriene B4 was examined by placing the same concentration of leukotriene B4 (0.1 μM) in both compartments of the chamber. Viability of the eosinophils was determined by the Trypan blue dye exclusion test after incubation for 90 min. All samples were assayed in duplicate. Blood was also collected on the same day and plasma was separated and stored at −20° C. for follow-on anti-inflammatory biomarker assays.

[3] = 20 mg (i.p.), compared to control

Compound	Mortality and Morbidity: Observation ([1]; 5 mg/kg bw)	Mortality and Morbidity: No. of Incidence/No. of Animals ([1]; 5 mg/kg bw)	Mortality and Morbidity: Observation ([1]; 20 mg/kg bw)	Mortality and Morbidity: No. of Incidence/No. of Animals ([1]; 20 mg/kg bw)	chemokinetic (B) activity to leukotriene B4 (0.1 uM), individual animals ([2]; 5 mg/kg bw i.p.)	chemotactic (A) activity to leukotriene B4 (0.1 uM), individual animals ([2]; 5 mg/kg bw i.p.)	Maximum inhibition for chemokinesis [2, 3] [%]	Maximum inhibition for chemotaxis [2, 3] [%]	chemokinetic (B) activity to leukotriene B4 (0.1 uM), individual animals ([2]; 20 mg/kg bw i.p.)	chemotactic (A) activity to leukotriene B4 (0.1 uM), individual animals ([2]; 20 mg/kg bw i.p.)	inhibition of eosinophil chemotactic and chemokinetic activities [2]	chemokinetic (B) activity to leukotriene B4 (0.1 uM), individual animals ([2]; 300 mg/kg bw i.p.)	chemotactic (A) activity to leukotriene B4 (0.1 uM), individual animals ([2]; 300 mg/kg bw i.p.)
Cc1c(CC(=O)O)c2cccnc2n1Cc1ccc(S(C)(=O)=O)cc1C(F)(F)F [Fevipiprant]	No mortality/morbidity	03/03	No mortality/morbidity	03/03	290 Cells/5 fields (2×) and 280 Cells/5 fields	425 Cells/5 fields and 390 Cells/5 fields and 420 Cells/5 fields	51.7	68.0	160 Cells/5 fields and 175 Cells/5 fields and 165 Cells/5 fields	320 Cells/5 fields and 325 Cells/5 fields and 330 Cells/5 fields	significantly inhibited	–	–
CCCCC/C=C\C/C=C\CCCCCCCC(=O)O [Linoleic acid]	–	–	–	–	–	–	–	–	–	–	did not inhibit	335 Cells/5 fields and 360 Cells/5 fields and 340 Cells/5 fields	770 Cells/5 fields and 790 Cells/5 fields and 760 Cells/5 fields
